Patent US11773075B2, “Modulators of p97 AAA ATPase activity” (University of Pittsburgh—Of the Commonwealth System of …, priority 2017, dated 2023)

Assays:
p97 = p97 (Homo sapiens, UniProt P55072); assay: BioMol Green ATPase assay; type: biochemical; details: 200 μM ATP, read-out: P97 Biomolgreen
Excerpt: Biomol Green (Enzo) is a […] from a biochemical reaction. Because of its high sensitivity, the assay is suitable for monitoring enzyme activities at very early substrate conversions requiring very low amount of enzymes. […] The assay procedure used may be the same as in Zhang et al., “Altered cofactor regulation with disease-associated p97/VCP mutations,” Proc. Natl. Acad. Sci. USA, 112(14), E1705-E1714 (2015).
The BioMol Green ATPase assay procedure used was that which was disclosed in Zhang, et al., “Altered cofactor regulation with disease-associated p97/VCP mutations,” Proc. Natl. Acad. Sci. USA, 112(14), E1705-E1714 (2015). The following Table IV provides relevant results. The compound number correlates to the numbered compounds in Table III. Compounds also show activity in a cell-based assay such as the ubiquitin assay (assay as described in, e.g., (1) Dantuma et al., “Short-lived green fluorescent proteins for quantifying ubiquitin/proteasome-dependent proteolysis in living cells,” Nat. Biotechnol. 2000, 18, 538-543; and (2) WO 2010003908).

Chain of p97 (P55072 whole entry): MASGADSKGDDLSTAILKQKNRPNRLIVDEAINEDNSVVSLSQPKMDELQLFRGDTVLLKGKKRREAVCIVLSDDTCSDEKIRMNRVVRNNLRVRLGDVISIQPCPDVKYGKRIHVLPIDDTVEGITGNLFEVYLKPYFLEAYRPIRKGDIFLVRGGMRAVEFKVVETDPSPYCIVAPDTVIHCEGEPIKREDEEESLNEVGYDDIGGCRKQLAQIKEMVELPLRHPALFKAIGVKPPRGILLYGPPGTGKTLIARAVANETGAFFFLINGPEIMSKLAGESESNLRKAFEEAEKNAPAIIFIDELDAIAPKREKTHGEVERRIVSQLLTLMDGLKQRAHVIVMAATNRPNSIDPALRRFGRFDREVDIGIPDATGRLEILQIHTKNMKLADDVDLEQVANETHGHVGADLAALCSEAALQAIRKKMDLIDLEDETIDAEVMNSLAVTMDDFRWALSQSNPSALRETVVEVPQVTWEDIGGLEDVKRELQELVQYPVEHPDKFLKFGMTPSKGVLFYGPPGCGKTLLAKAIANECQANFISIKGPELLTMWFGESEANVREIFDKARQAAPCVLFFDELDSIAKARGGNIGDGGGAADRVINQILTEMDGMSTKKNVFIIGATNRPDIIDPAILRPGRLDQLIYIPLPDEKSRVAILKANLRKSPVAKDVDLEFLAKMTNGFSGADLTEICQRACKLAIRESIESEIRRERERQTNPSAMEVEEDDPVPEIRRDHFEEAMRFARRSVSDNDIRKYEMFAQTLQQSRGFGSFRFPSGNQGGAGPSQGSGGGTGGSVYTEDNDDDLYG

Row | IC50 (p97) [nM] | melting point [°C] | SMILES
1 | 19 |  | [2H]C1([2H])C([2H])([2H])C([2H])([2H])C([2H])(Sc2ncc(COc3cc(F)c(C#CCO)cc3F)n2-c2cccnc2)C1([2H])[2H] [Compound 38]
2 | 50 |  | Cc1cc(OCc2c(C(N)=O)nc(SC3CCCC3)n2-c2cccnc2)ccc1C#CCO [Compound 25]
3 | 19 |  | [2H]C1([2H])C([2H])([2H])C([2H])([2H])C([2H])(Sc2ncc(COc3cc(F)c(C#CCOC(=O)NC4CCN(C)CC4)c(F)c3)n2-c2cccnc2)C1([2H])[2H] [Compound 39]
4 | 54 |  | Cc1cc(OCc2cnc(SC3C=CCCC3)n2-c2cccnc2)ccc1-c1ccc(S(C)(=O)=O)cc1 (stereo not shown) [Compound 31]
5 | 37 |  | Cc1cc(OCc2c(Cl)nc(SC3C=CCCC3)n2-c2cccnc2)ccc1-c1ccc(S(C)(=O)=O)cc1 (stereo not shown) [Compound 32]
6 | 46 |  | OCC#Cc1c(F)cc(OCc2c(Cl)nc(SC3C=CCCC3)n2-c2cccnc2)cc1F (stereo not shown) [Compound 42]
7 | 17 |  | [2H]C1([2H])C([2H])([2H])C([2H])([2H])C([2H])(Sc2nc(Br)c(COc3ccc(C#CCOC(=O)NCCN4CCN(C(C)C)CC4)c(C)c3)n2-c2cccnc2)C1([2H])[2H] [Compound 21]
8 | 20 |  | CC#Cc1nc(SC2CCCC2)n(-c2cccnc2)c1COc1cc(F)c(C#CCOC(=O)NC2CCN(C)CC2)c(F)c1 [Compound 40]
9 | 60 |  | Cc1cc(OCc2c(C#N)nc(SC3CCCC3)n2-c2cccnc2)ccc1C#CCO [Compound 22]
10 | 29 |  | [2H]C1([2H])C([2H])([2H])C([2H])([2H])C([2H])(Sc2nc(Br)c(COc3ccc(C#CCO)c(C)c3)n2-c2cccnc2)C1([2H])[2H] [Compound 20]
11 | 60 |  | [2H]C1([2H])C([2H])([2H])C([2H])([2H])C([2H])(Sc2ncc(COc3cc(Cl)c(C#CCOC(=O)NC4CCN(C)CC4)cc3Cl)n2-c2cccnc2)C1([2H])[2H] [Compound 44]
12 | 100 |  | Cc1cc(OCc2cnc(SC(C)C)n2-c2cccnc2)ccc1C#CCOC(=O)NCCN1CCN(C(C)C)CC1 [Compound 5]
13 | 56 |  | Cc1cc(OCc2cnc(SC3C=CCCC3)n2-c2cccnc2)ccc1C#CCNC1CCN(C)CC1 (stereo not shown) [Compound 9, N-(3-(4-((2-(cyclohex-2-en-1-ylthio)-1-(pyridin-3-yl)-1H-imidazol-5-yl)methoxy)-2-methylphenyl)prop-2-yn-1-yl)-1-methylpiperidin-4-amine]
14 | 100 |  | COCOCC#Cc1ccc(OCc2cnc(SC3C=CCCC3)n2-c2cccnc2)cc1C (stereo not shown) [Compound 6]
15 | 75 |  | [2H]C1([2H])C([2H])([2H])C([2H])([2H])C([2H])(Sc2ncc(COc3ccc(-c4ccc(S(C)(=O)=O)cc4)c(C)c3)n2-c2cccnc2)C1([2H])[2H] [Compound 29]
16 | 66 |  | Cc1cc(OCc2c(Br)nc(SC3C=CCCC3)n2-c2cccnc2)ccc1-c1ccc(S(C)(=O)=O)cc1 (stereo not shown) [Compound 30]
17 | 20 |  | Cc1cc(OCc2cnc(SC3C=CCCC3)n2-c2cccnc2)ccc1C#CCOC(=O)NCCN1CCN(C)CC1 (stereo not shown) [Compound 11]
18 | 30 |  | Cc1cc(OCc2c(C#CCO)nc(SC3CCCC3)n2-c2cccnc2)ccc1C#CCO [Compound 23, 3-(4-((2-(Cyclopentylthio)-4-(3-hydroxyprop-1-yn-1-yl)-1-(pyridin-3-yl)-1H-imidazol-5-yl)methoxy)-2-methylphenyl)prop-2-yn-1-ol]
19 | 36 |  | Cc1cc(OCc2cnc(SC3C=CCCC3)n2-c2cccnc2)ccc1C#CCOC(=O)NCCN1CCOCC1 (stereo not shown) [Compound 4]
20 | > 6700 |  | CCS(=O)(=O)c1ncc(COc2ccc(C#CCO)c(C)c2)n1-c1cccnc1 [Compound 16, 3-(4-((2-(Ethylsulfonyl)-1-(pyridin-3-yl)-1H-imidazol-5-yl)methoxy)-2-methylphenyl)prop-2-yn-1-ol]
21 | 60 |  | CC(=O)NCC#Cc1ccc(OCc2cnc(SC3C=CCCC3)n2-c2cccnc2)cc1C (stereo not shown) [Compound 8, N-(3-(4-((2-(Cyclohex-2-en-1-ylthio)-1-(pyridin-3-yl)-1H-imidazol-5-yl)methoxy)-2-methylphenyl)-prop-2-yn-1-yl)acetamide]
22 | 50 |  | Cc1cc(OCc2cnc(SC3C=CCCC3)n2-c2cccnc2)ccc1C#CCNCCN(C)C (stereo not shown) [Compound 10]

Row | IC50 (p97) [nM] | melting point [°C] | SMILES
23 | 39 |  | COCCNC(=O)OCC#Cc1ccc(OCc2cnc(SC3C=CCCC3)n2-c2cccnc2)cc1C (stereo not shown) [Compound 3]
24 | 37 |  | Cc1cc(OCc2cnc(SC3C=CCCC3)n2-c2cccnc2)ccc1C#CCO (stereo not shown) [Compound 1, 3-(4-((2-(Cyclohex-2-en-1-ylthio)-1-(pyridin-3-yl)-1H-imidazol-5-yl)methoxy)-2-methylphenyl)prop-2-yn-1-ol]
25 | 34 |  | Cc1cc(OCc2cnc(SC3C=CCCC3)n2-c2cccnc2)ccc1C#CCOC(=O)NC1CCOCC1 (stereo not shown) [Compound 2]
26 | 110 |  | COCCOCC#Cc1ccc(OCc2cnc(SC3C=CCCC3)n2-c2cccnc2)cc1C (stereo not shown) [Compound 7]
27 | 32 |  | Cc1cc(OCc2c(Br)nc(SC3C=CCCC3)n2-c2cccnc2)ccc1C#CCOC(=O)NCCN1CCN(C(C)C)CC1 (stereo not shown) [Compound 13]
28 | 110 |  | COC(=O)/C=C/c1nc(SC2CCCC2)n(-c2cccnc2)c1COc1ccc(C#CCO)c(C)c1 [Compound 27, Methyl (E)-3-(2-(cyclopentylthio)-5-((4-(3-hydroxyprop-1-yn-1-yl)-3-methylphenoxy)methyl)-1-(pyridin-3-yl)-1H-imidazol-4-yl)acrylate]
29 | 50 |  | Cc1cc(OCc2cnc(CC3CCCC3)n2-c2cccnc2)ccc1C#CCOC(=O)NC1CCN(C)CC1 [Compound 26]
30 | 17 |  | [2H]C1([2H])C([2H])([2H])C([2H])([2H])C([2H])(Sc2ncc(COc3ccc(C#CCOC(=O)NC4CCN(C)CC4)c(F)c3)n2-c2cccnc2)C1([2H])[2H] [Compound 37, 3-(4-((2-((Cyclopentyl-d9)thio)-1-(pyridin-3-yl)-1H-imidazol-5-yl)methoxy)-2-fluorophenyl)prop-2-yn-1-yl (1-methylpiperidin-4-yl)carbamate]
31 | 160 |  | Cc1cc(OCc2cnc(SC3C=CCCC3)n2-c2cccnc2)ccc1Cl (stereo not shown) [Compound 34]
32 | 40 |  | CC#Cc1nc(SC2CCCC2)n(-c2cccnc2)c1COc1cc(F)c(C#CCO)c(F)c1 [Compound 41]
33 | 200 |  | [2H]C1([2H])C([2H])([2H])C([2H])([2H])C([2H])(Sc2ncc(COc3cc(Cl)c(C#CCO)cc3Cl)n2-c2cccnc2)C1([2H])[2H] [Compound 45]
34 | 50 |  | Cc1cc(OCc2c(Br)nc(SC3C=CCCC3)n2-c2cccnc2)ccc1C#CCO (stereo not shown) [Compound 12]
35 | 250 | 119 to 121 | Cc1cc(OCc2c(C(C)(C)O)nc(SC3CCCC3)n2-c2cccnc2)ccc1C#CCO [Compound 28, 3-(4-((2-(Cyclopentylthio)-4-(2-hydroxypropan-2-yl)-1-(pyridin-3-yl)-1H-imidazol-5-yl)methoxy)-2-methylphenyl)prop-2-yn-1-ol]
36 | 130 |  | Fc1cc(OCc2cnc(SC3C=CCCC3)n2-c2cccnc2)ccc1Br (stereo not shown) [Compound 33]
37 | 50 |  | CCOC(=O)c1nc(SC2CCCC2)n(-c2cccnc2)c1COc1ccc(C#CCO)c(C)c1 [Compound 24]
38 | 27 |  | Cc1cc(OCc2cnc(SC3C=CCCC3)n2-c2cccnc2)ccc1C#CCOC(=O)NC(C)C (stereo not shown) [Compound 14]
39 | 14 |  | Cc1cc(OCc2cnc(SC3C=CCCC3)n2-c2cccnc2)ccc1C#CCOC(=O)NC1CCN(C)CC1 (stereo not shown) [Compound 15]
40 | 11 |  | CN1CCC(NC(=O)OCC#Cc2cc(F)c(OCc3cnc(SC4C=CCCC4)n3-c3cccnc3)cc2F)CC1 (stereo not shown) [Compound 36]
41 | 240 |  | Cc1cc(OCc2cnc(SC3CC3)n2-c2cccnc2)ccc1C#CCO [Compound 17]
42 | 57 |  | Cc1cc(OCc2c(Br)nc(SC3CC3)n2-c2cccnc2)ccc1C#CCOC(=O)N1CCN(C(C)C)CC1 [Compound 19]
43 | 56 |  | [2H]C1([2H])C([2H])([2H])C([2H])([2H])C([2H])(Sc2ncc(COc3cc(F)c(C#CCO)c(F)c3)n2-c2cccnc2)C1([2H])[2H] [Compound 43]
44 | 34 |  | Cc1cc(OCc2c(Cl)nc(SC3C=CCCC3)n2-c2cccnc2)ccc1C#CCO (stereo not shown) [Compound 18]

Row | SMILES | IC50 (p97) [nM] | melting point [°C]
45 | [2H]C1([2H])C([2H])([2H])C([2H])([2H])C([2H])(Sc2ncc(COc3cc(F)c(C#CCOC(=O)NC4CCN(C)CC4)cc3F)n2-c2cccnc2)C1([2H])[2H] [Compound 35] | 8 | 
